{"source": "patent US9249140B2", "about": "“Bicyclic heteroaromatic compounds” (MERCK PATENT GMBH, priority 2011, dated 2016)", "key": {"[1]": {"target": "T1, FAK (Homo sapiens, UniProt Q05397)", "T1 construct": "2 nM FAK, 400 nM biotinylated substrate", "T1 sequence (Q05397 whole entry)": "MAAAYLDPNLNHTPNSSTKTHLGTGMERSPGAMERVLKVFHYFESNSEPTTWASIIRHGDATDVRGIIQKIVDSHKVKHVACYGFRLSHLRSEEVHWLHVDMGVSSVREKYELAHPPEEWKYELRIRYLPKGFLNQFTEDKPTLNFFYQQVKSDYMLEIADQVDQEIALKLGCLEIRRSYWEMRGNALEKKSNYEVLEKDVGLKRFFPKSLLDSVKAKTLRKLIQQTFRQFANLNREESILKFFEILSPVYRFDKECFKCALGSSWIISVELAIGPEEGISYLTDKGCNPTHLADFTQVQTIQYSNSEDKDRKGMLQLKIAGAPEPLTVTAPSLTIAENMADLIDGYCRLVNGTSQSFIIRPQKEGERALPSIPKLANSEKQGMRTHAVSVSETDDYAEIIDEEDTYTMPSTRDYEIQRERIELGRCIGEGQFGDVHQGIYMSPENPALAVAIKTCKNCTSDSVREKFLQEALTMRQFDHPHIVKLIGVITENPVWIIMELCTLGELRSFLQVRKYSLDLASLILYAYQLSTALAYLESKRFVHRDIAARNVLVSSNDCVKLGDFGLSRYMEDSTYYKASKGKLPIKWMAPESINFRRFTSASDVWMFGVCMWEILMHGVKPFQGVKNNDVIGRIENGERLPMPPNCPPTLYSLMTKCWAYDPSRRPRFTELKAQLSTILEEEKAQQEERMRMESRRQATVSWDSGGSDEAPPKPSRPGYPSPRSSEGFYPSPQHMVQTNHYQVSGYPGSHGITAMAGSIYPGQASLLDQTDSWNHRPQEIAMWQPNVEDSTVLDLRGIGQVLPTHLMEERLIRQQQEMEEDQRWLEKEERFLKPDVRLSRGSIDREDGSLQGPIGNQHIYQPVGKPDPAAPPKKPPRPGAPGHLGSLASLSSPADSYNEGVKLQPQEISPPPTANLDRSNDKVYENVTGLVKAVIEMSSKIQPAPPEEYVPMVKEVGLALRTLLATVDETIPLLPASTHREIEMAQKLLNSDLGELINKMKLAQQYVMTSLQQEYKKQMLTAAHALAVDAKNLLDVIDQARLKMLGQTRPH", "test": "Cellular testing of FAK kinase inhibitors: autophosphorylation of FAK at tyrosine 397, Luminex-based assay in HT29 cells", "assay_type": "cell-based", "conditions": "P-Y397-FAK in HT29 cells, 30 min, serum-free, read-out: IC50 (cellular), FAK inhibition", "quoted_text": "For analysis of the cellular activity of FAK, the extent of autophosphorylation of FAK at tyrosine 397 is determined with the aid of a Luminex-based assay in the 96-well format. HT29 cells are sown out with 30,000 cells per well in 100 μl of medium (90% of DMEM/10% of FCS) and incubated on the following day for 30 min with a serial dilution of the test substance (7 concentrations) under serum-free conditions. The cells are subsequently lysed using 90 μl of lysis buffer (20 mM tris/HCl pH 8.0, 150 mM NaCl, 1% of NP40, 10% of glycerol, 1% of phosphatase inhibitor II, 20 mM β-glycerol phosphate, 0.1% of protease inhibitor cocktail III, 0.01% of benzonase) per well, and the lysates are separated off from insoluble cell constituents by means of centrifugation through a 96-well filter plate (0.65 μm). The lysates are incubated at 4° C. overnight with shaking with Luminex beads to which an anti-total FAK antibody is coupled. The detection is carried out on the following day by addition of a P-Y397-FAK antibody and a species-specific PE-labelled secondary antibody. P-Y397-FAK is detected by measurement in the Luminex100 instrument by determination of 100 events per cavity in a measurement time of 60 sec. […] The values of the batches treated with test substance are calculated therefrom as percent of control, and IC50 values are determined by means of Assay Explorer."}, "[2]": {"target": "T1, FAK", "test": "FAK kinase assay (autophosphorylation), 384-well flashplate", "assay_type": "biochemical", "conditions": "enzymatic; 1 μM ATP; read-out: IC50 (enzymatic), FAK inhibition", "procedure": "The focal adhesion kinase (FAK) assay is carried out either as a 384-well flashplate assay (for example for Topcount measurements) or as a 384-well image flashplate assay (for LEADseeker measurements). […] The reaction is stopped using 25 μl of 200 mM EDTA. After 30 min at 30° C., the liquid is removed, and each well is washed three times with 100 μl of 0.9% sodium chloride solution. Non-specific reaction is determined in the presence of 1 μM EMD 1076893/0(PF-562271). The radioactivity is measured using Topcount (in the case of the use of flashplates) or using LEADseeker (in the case of the use of image flashplates)."}}, "data": [{"compound": "CN(c1ncccc1CNc1c(C#N)cnc2[nH]cc(Cl)c12)S(C)(=O)=O", "note": "[A10, N-{3-[(3-Chloro-5-cyano-1H-pyrrolo[2,3-b]-pyridin-4-ylamino)methyl]pyridin-2-yl}-N-methylmethanesulfonamide]", "values": [{"measurement": "IC50", "setting": "[1]", "result": "3 to 50", "unit": "µM"}, {"measurement": "IC50", "setting": "[2]", "result": "0.3 to 3", "unit": "µM"}]}]}
